Measurements published in US11696913B2, “Prolonged ectoparasite-controlling agent for animal” (MITSUI CHEMICALS AGRO, INC., priority 2017, dated 2023).

Assays:
[1] = tested on: Ctenocephalides felis; assay: In vitro contact test with fleas; details: read-out: insecticidal activity; for pest or weed control at 0.04 µg/cm2, 0.04 µg/cm2: dose 0.04 μg/cm^2, dead or moribund fleas after 48 h; for pest or weed control at 0.2 µg/cm2, 0.2 µg/cm2: dose 0.2 μg/cm^2, dead or moribund fleas after 48 h; for pest or weed control at 1 µg/cm2, 1 µg/cm2: dose 1 μg/cm^2, dead or moribund fleas after 48 h
In short: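 Activity is the percentage of fleas dead or moribund at 48 h, judged by immobility or uncoordinated movement after tapping. Tubes were coated by evaporating acetone solutions (900 ppm gives 5 μg/cm^2), then held 5-10 adult fleas of both sexes at room temperature and ambient humidity.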

[2] = tested on: Amblyomma americanum; assay: In vitro contact test with hard ticks (Amblyomma americanum nymphs); details: read-out: acaricidal activity; for pest or weed control at 0.04 µg/cm2, 0.04 µg/cm2: dose 0.04 μg/cm^2, 48 h; for pest or weed control at 1 µg/cm2, 1 µg/cm2: dose 1 μg/cm^2, 48 h; for pest or weed control at 0.2 µg/cm2, 0.2 µg/cm2: dose 0.2 μg/cm^2, 48 h
In short: (§1)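 Acaricidal activity = % ticks dead or moribund after 48 h contact with acetone-deposited compound on vial walls (e.g., 900 ppm solution → 5 μg/cm^2). Ambient conditions for R. sanguineus, 21° C./85% rel. hum. for other species; heat challenge at 45-50° C. separated climbers from moribund ticks.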

[3] = tested on: Dermacentor variabilis; assay: In vitro contact test with adult hard ticks (Dermacentor variabilis); details: read-out: acaricidal activity; for pest or weed control at 0.2 µg/cm2, 0.2 µg/cm2: dose 0.2 μg/cm^2, 48 h; for pest or weed control at 1 µg/cm2, 1 µg/cm2: dose 1 μg/cm^2, 48 h; for pest or weed control at 0.04 µg/cm2, 0.04 µg/cm2: dose 0.04 μg/cm^2, 48 h
In short: as §1

[4] = tested on: Ixodes ricinus; assay: In vitro contact test with adult hard ticks (Ixodes ricinus); details: read-out: acaricidal activity; for pest or weed control at 1 µg/cm2, 1 µg/cm2: dose 1 μg/cm^2, 48 h; for pest or weed control at 5 µg/cm2, 5 µg/cm2: dose 5 μg/cm^2, 48 h; for pest or weed control at 0.2 µg/cm2, 0.2 µg/cm2: dose 0.2 μg/cm^2, 48 h
In short: as §1

[5] = tested on: Rhipicephalus sanguineus; assay: In vitro contact test with adult hard ticks (Rhipicephalus sanguineus); details: read-out: acaricidal activity; for pest or weed control at 1 µg/cm2, 1 µg/cm2: dose 1 μg/cm^2, 48 h; for pest or weed control at 0.2 µg/cm2, 0.2 µg/cm2: dose 0.2 μg/cm^2, 48 h; for pest or weed control at 0.04 µg/cm2, 0.04 µg/cm2: dose 0.04 μg/cm^2, 48 h
In short: as §1

[6] = tested on: Rhipicephalus (Boophilus) microplus; assay: In vitro injection test with Rhipicephalus (Boophilus) microplus (BOOPMI Inj); details: 168 h, laid fertile eggs after 7 days, read-out: acaricidal activity; for pest or weed control at 32 ng: dose 0.032 μg/animal injected; for pest or weed control at 0.00016 mg: dose 0.16 μg/animal injected; for pest or weed control at 0.0008 mg: dose 0.8 μg/animal injected
In short: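 Five engorged adult females each get a 1 μl abdominal injection of compound dissolved and diluted in DMSO. Kept 7 days at 28° C./85% rel. hum.; percent activity rates egg laying and egg fertility (0% all fertile, 100% none laid or infertile).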

[7] = tested on: Ctenocephalides felis; assay: Ctenocephalides felis in-vitro feeding test with fleas (CTECFE oral); details: 48 hours, read-out: insecticidal feeding activity; for pest or weed control at 0.032 ppm: dose 0.032 ppm in citrated cattle blood; for pest or weed control at 0.16 ppm: dose 0.16 ppm in citrated cattle blood; for pest or weed control at 0.8 ppm: dose 0.8 ppm in citrated cattle blood; for pest or weed control at 4 ppm: dose 4 ppm in citrated cattle blood
In short: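 Scored as percent fleas killed (0–100%) 48 hours after feeding began. Compound, dissolved in DMSO and diluted into citrated cattle blood, was offered via a parafilm membrane to roughly 20 adult male and female C. felis at about 37° C.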

[8] = tested on: Spodoptera litura; assay: Insecticidal testing against common cutworm; format: in vivo; details: foliar, 144 h, concentration 100 ppm, cabbage leaf dip, second-stage larvae, after 6 days, read-out: pesticidal rate
From the text: Insecticidal Testing Against Common Cutworm (Spodoptera litura)

[9] = tested on: Plutella xylostella; assay: Insecticidal testing against diamondback moth; format: in vivo; details: foliar, 144 h, concentration 100 ppm, cabbage leaf dip, third-stage larvae, after 6 days, read-out: pesticidal rate
From the text: Insecticidal Testing Against Diamondback Moth (Plutella xylostella)

[10] = tested on: Laodelphax striatellus; assay: Insecticidal testing against small brown planthopper; format: in vivo; details: 144 h, concentration 100 ppm, sprayed rice seedlings, after 6 days, read-out: pesticidal rate
In short: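 Acetone solution of compound at a set concentration sprayed onto rice seedlings, air-dried, then exposed to 10 planthoppers (one group). Held at 25° C; survival rate recorded after 6 days.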

SMILES | pest or weed control at 0.04 µg/cm2, 0.04 µg/cm2 [1] [%] | pest or weed control at 0.2 µg/cm2, 0.2 µg/cm2 [1] [%] | pest or weed control at 1 µg/cm2, 1 µg/cm2 [1] [%] | pest or weed control at 1 µg/cm2, 1 µg/cm2 [2] [%] | pest or weed control at 0.2 µg/cm2, 0.2 µg/cm2 [3] [%] | pest or weed control at 1 µg/cm2, 1 µg/cm2 [3] [%] | pest or weed control at 1 µg/cm2, 1 µg/cm2 [4] [%] | pest or weed control at 5 µg/cm2, 5 µg/cm2 [4] [%] | pest or weed control at 1 µg/cm2, 1 µg/cm2 [5] [%] | pest or weed control at 32 ng [6] [%] | pest or weed control at 0.00016 mg [6] [%] | pest or weed control at 0.0008 mg [6] [%] | pest or weed control at 0.16 ppm [7] [%] | pest or weed control at 0.8 ppm [7] [%] | pest or weed control at 4 ppm [7] [%] | pest or weed control at 100 ppm [8] [%] | pest or weed control at 100 ppm [9] [%] | pest or weed control at 100 ppm [10] [%] | pest or weed control at 0.2 µg/cm2, 0.2 µg/cm2 [2] [%] | pest or weed control at 0.2 µg/cm2, 0.2 µg/cm2 [5] [%] | other results
CN(C(=O)c1ccc(F)cc1)c1cccc(C(=O)Nc2c(Br)cc(C(F)(C(F)(F)F)C(F)(F)C(F)(F)F)cc2OC(F)F)c1F (centres unmarked) [Compound 105] | 95 | 95 | 95 | 90 | 90 | 90 | 90 | 90 | 90 | 100 | 100 | 100 | 95 | 95 | 95 | ≥ 70 | ≥ 70 | ≥ 70 | – | – | pest or weed control at 0.04 µg/cm2, 0.04 µg/cm2 [2]: 90%; pest or weed control at 0.032 ppm [7]: 95%
N#Cc1ccc(C(=O)Nc2cccc(C(=O)Nc3c(I)cc(C(F)(C(F)(F)F)C(F)(F)F)cc3C(F)(F)F)c2F)cn1 [Compound 79] | – | 95 | 95 | 90 | – | 90 | 90 | 90 | 90 | 100 | 100 | 100 | 95 | 95 | 95 | ≥ 70 | ≥ 70 | ≥ 70 | 90 | 90 | –
CN(C(=O)c1ccc(F)nc1)c1cccc(C(=O)Nc2c(I)cc(C(F)(C(F)(F)F)C(F)(F)C(F)(F)F)cc2C(F)(F)F)c1F (centres unmarked) [Compound 81] | 95 | 95 | 95 | 90 | 90 | 90 | – | 90 | 90 | 100 | 100 | 100 | 95 | 95 | 95 | ≥ 70 | ≥ 70 | ≥ 70 | 90 | 90 | pest or weed control at 0.04 µg/cm2, 0.04 µg/cm2 [3]: 90%; pest or weed control at 6.4 ng ([6]; dose 0.0064 μg/animal injected): 100%
O=C(Nc1cccc(C(=O)Nc2c(I)cc(C(F)(C(F)(F)F)C(F)(F)C(F)(F)F)cc2C(F)(F)F)c1F)c1ccc(F)c(F)c1 (centres unmarked) [Compound 78] | – | 95 | 95 | 90 | 90 | 90 | 90 | 90 | 90 | 100 | 100 | 100 | 95 | 95 | 95 | ≥ 70 | ≥ 70 | ≥ 70 | 90 | 90 | pest or weed control at 0.04 µg/cm2, 0.04 µg/cm2 [3]: 90%; pest or weed control at 0.2 µg/cm2, 0.2 µg/cm2 [4]: 90%
O=C(Nc1cccc(C(=O)Nc2c(I)cc(C(F)(C(F)(F)F)C(F)(F)F)cc2OC(F)F)c1F)c1ccc(C(F)(F)F)nc1 [Compound 108] | – | 95 | 95 | 90 | 90 | 90 | 90 | 90 | 90 | 100 | 100 | 100 | 95 | 95 | 95 | ≥ 70 | ≥ 70 | ≥ 70 | 90 | 90 | pest or weed control at 0.2 µg/cm2, 0.2 µg/cm2 [4]: 90%; pest or weed control at 0.04 µg/cm2, 0.04 µg/cm2 [5]: 90%; pest or weed control at 0.0064 ppm ([7]; dose 0.0064 ppm in citrated cattle blood): 95%; pest or weed control at 0.032 ppm [7]: 95%
O=C(Nc1cccc(C(=O)Nc2c(Br)cc(C(F)(C(F)(F)F)C(F)(F)F)cc2OC(F)(F)F)c1F)c1ccc(F)c(F)c1 [Compound 101] | 95 | 95 | 95 | 90 | 90 | 90 | 90 | 90 | 90 | – | 100 | 100 | 95 | 95 | 95 | ≥ 70 | ≥ 70 | ≥ 70 | 90 | 90 | pest or weed control at 0.2 µg/cm2, 0.2 µg/cm2 [4]: 90%
O=C(Nc1cccc(C(=O)Nc2c(Br)cc(C(F)(C(F)(F)F)C(F)(F)F)cc2OC(F)F)c1F)c1ccc(F)cc1 [Compound 91] | 95 | 95 | 95 | 90 | 90 | 90 | 90 | 90 | 90 | 100 | 100 | 100 | 95 | 95 | 95 | ≥ 70 | ≥ 70 | ≥ 70 | 90 | 90 | pest or weed control at 0.04 µg/cm2, 0.04 µg/cm2 [2]: 90%; pest or weed control at 0.04 µg/cm2, 0.04 µg/cm2 [3]: 90%; pest or weed control at 0.2 µg/cm2, 0.2 µg/cm2 [4]: 90%; pest or weed control at 0.04 µg/cm2, 0.04 µg/cm2 [5]: 90%; pest or weed control at 0.032 ppm [7]: 95%
O=C(Nc1cccc(C(=O)Nc2c(I)cc(C(F)(C(F)(F)F)C(F)(F)F)cc2S(=O)(=O)C(F)(F)F)c1F)c1ccc(F)cc1 [Compound 64] | – | 95 | 95 | 90 | 90 | 90 | 90 | 90 | 90 | 100 | 100 | 100 | 95 | 95 | 95 | ≥ 70 | ≥ 70 | ≥ 70 | 90 | 90 | –
